Assay results reported in US10435400B2, “2,4-disubstituted phenylene-1,5-diamine derivatives and applications thereof, and pharmaceutical compositions and pharmaceutically acceptable compositions prepared therefrom” (SHANGHAI HAIYAN PHARMACEUTICAL TECHNOLOGY CO., LTD., priority 2014, dated 2019).
Where two headings read alike, the source gives them in different places.

Key:
[1] = tested on: H1975 cells; assay: Cytostatic activity by MTT method, H1975 cells; assay type: cell-based; details: MTT; for IC50: 72 h, read-out: H1975 cells (IC50/nM); for selective inhibitory activity against the cell growth [IC50 (A431 cells)/IC50 (H1975 cells)]: ratio of IC50 values
Experimental: MTT assay used the method well known to those skilled in the art, and the reagents used in the method can be commercially obtained. […] After rinsed for one time, 1.5 ml trypsin/EDTA was added to digest the adherent cells until the cells detached, and then 3.5 ml of medium was added to terminate the trypsinization. The digested cell suspension was transferred to a 15 ml falcon tube, and spun at 1300 rpm for 3 min, the supernatant was discarded, and cells were suspended in fresh medium. […] The plates were spun at 2000 rpm for 5 min.

[2] = tested on: A431 cells; assay: Cytostatic activity by MTT method, A431 cells; details: read-out: A431 cells (IC50/nM);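 further: viability read by MTT reduction after compound exposure, with MTT incubated for a further 4 h at 37 °C under 5% CO2 in 96-well plates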
Experimental: (§1) After rinsed for one time, 1.5 ml trypsin/EDTA was added to digest the adherent cells until the cells detached, and then 3.5 ml of medium was added to terminate the trypsinization. The digested cell suspension was transferred to a 15 ml falcon tube, and spun at 1300 rpm for 3 min, the supernatant was discarded, and cells were suspended in fresh medium.
(§2) The cells were added into the incubator after addition of the test compound, and incubated for 72 h, 10 μl of 5 mg/ml MTT (Sigma, M5655) solution was added to each well of the plate, and incubated the 96-well plates at 37° C. 5% CO2 for 4 h in a incubator.
(§3) The plates were spun at 2000 rpm for 5 min.

[3] = tested on: H1975 cells; assay: ELISA screening EGFR T790M inhibitor for cell activity, H1975 cells; assay type: cell-based; details: ELISA; for Selective inhibitory activities of target on cellular level [IC50 (A431 cells)/IC50 (H1975 cells)]: ratio of IC50 values; for IC50: compound 1 h, read-out: H1975 cells (IC50/nM)
Experimental: (§4) The reagents, preparation methods of the solution, as well as the procedures of cell treatments and preparation of lysate, and the test steps of ELISA in the following method were conducted according to the instructions of R&D DYC3570, R&D DYC1095E and R&D DYC1095BE.
(§5) Cell lysates: cell lysis buffer+10 μg/ml Aprotinin (Sigma), 10 μg/ml Leupeptin (Sigma). All reagents were prepared when using.
(2) The test compounds were diluted according to the method in MTT assay, and 10 μl of diluted compound or DMSO was added to the corresponding plate well, and incubated at 37° C. with 5% CO2 for 1 h. The final concentration of DMSO was 0.5%. Cell culture system merely treated with DMSO was used as cell control.
(3) 100 μl cell lysate was added after aspirating the medium, sealed and placed in a refrigerator at −80° C. overnight. Cell lysis buffer used as blank control.
The assay was operated according to the instructions of R&D DYC1095E or R&D DYC1095BE.
(§6) (5) 40 μl of cell lysis buffer and 60 μl of cell lysates were added, and incubated at 25° C. for 2 h under shaking;
(7) Detection antibody was diluted according to a predetermined ratio as stipulated in kit instructions by using IC diluent, and 100 μl of the diluted Detection Antibody was added to each well, and incubated at 25° C. for 1 h under shaking in darkness;
(9) reagent A and reagent B of TMB substrate (R & D DY999) were mixed with 1:1, and 100 μl of substrate was added to each well, and incubated at 25° C. for 20 minutes under shaking in darkness;
(11) The OD450 values and OD570 values of the cell control, blank control and compound treatment were measured respectively by using microplate reader (Thermo Multiskan K3), and the corresponding OD570 values were subtracted from OD450 values of the same wells to get the ODcell, ODblank and ODcompound treatment respectively.
2.3 Data Analysis Inhibition ratio (%)=100%×(ODcell−ODcompound treatment)(ODcell−ODblank)

[4] = target: EGFR WT kinase (Homo sapiens (Human), UniProt P00533); assay: Wild type EGFR kinase inhibition test (z-lyte); assay type: biochemical; details: 10 μM ATP
[5] = tested on: A431 cells; assay: ELISA cell activity, EGF-stimulated A431 cells; assay type: cell-based; details: ELISA, compound 1 h then EGF 45 minutes, read-out: A431 cells (IC50/nM);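 further: Serum-starved A431 cells pretreated with compound for 1 h, then stimulated with EGF for 45 min, lysates read by ELISA (OD450 minus OD570), EGF-only wells as control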
Experimental: as §4, §5
(2) The medium of A431 cells was changed to 90 ul of DMEM FBS free medium, and incubated overnight.
(3) The test compounds were diluted according to the method in MTT assay, 10 μl of diluted compound or DMSO was added to the corresponding plate well, and incubated at 37° C. with 5% CO2 for 1 h. The final concentration of DMSO was 0.5%. 10 μl of 2 μg/L EGF was then added to each well except the cell control well, 10 μl of FBS free DMEM was added to the well, and incubated for 45 minutes; the EGF-free and compound treatment-free cells were used as cell control, and the compound treatment-free but only EGF-treated cells were used as EGF control.
(4) 100 μl cell lysate was added after aspirating the medium, sealed and placed in refrigerator at −80° C. overnight.
The assay was operated according to the instructions of R&D DYC3570E.
as §6
(7) Detection antibody was diluted according to a predetermined ratio of kit instruction by using IC dilution, and 100 μl of the diluted Detection Antibody was added to each well, and incubated at 25° C. for 1 h under shaking in darkness;
(9) reagent A and reagent B of TMB substrate (R & D DY999) were mixed at 1:1, 100 μl of substrate was added to each well, and incubated at 25° C. for 20 minutes under shaking in darkness;
(11) The OD450 values and OD570 values of the cell control, blank control and compound treatment were measured respectively by using microplate reader (Thermo Multiskan K3), and the corresponding OD570 values were subtracted from OD450 values of the same wells to get the ODEGF, ODcompound and ODcell respectively.

[6] = tested on: NIH3T3 cells; assay: Cytotoxicity by MTT method, NIH3T3 cells; assay type: cell-based; details: cytotoxicity, MTT, 72 h, read-out: NIH3T3 cells MTT assay (IC50/nM);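 further: cells grown in 96-well plates with compound for 72 h, then given MTT for a further 4 h at 37 °C under 5% CO2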
Experimental: as §1, §2, §3

Sequence of EGFR WT kinase (P00533 25-1210): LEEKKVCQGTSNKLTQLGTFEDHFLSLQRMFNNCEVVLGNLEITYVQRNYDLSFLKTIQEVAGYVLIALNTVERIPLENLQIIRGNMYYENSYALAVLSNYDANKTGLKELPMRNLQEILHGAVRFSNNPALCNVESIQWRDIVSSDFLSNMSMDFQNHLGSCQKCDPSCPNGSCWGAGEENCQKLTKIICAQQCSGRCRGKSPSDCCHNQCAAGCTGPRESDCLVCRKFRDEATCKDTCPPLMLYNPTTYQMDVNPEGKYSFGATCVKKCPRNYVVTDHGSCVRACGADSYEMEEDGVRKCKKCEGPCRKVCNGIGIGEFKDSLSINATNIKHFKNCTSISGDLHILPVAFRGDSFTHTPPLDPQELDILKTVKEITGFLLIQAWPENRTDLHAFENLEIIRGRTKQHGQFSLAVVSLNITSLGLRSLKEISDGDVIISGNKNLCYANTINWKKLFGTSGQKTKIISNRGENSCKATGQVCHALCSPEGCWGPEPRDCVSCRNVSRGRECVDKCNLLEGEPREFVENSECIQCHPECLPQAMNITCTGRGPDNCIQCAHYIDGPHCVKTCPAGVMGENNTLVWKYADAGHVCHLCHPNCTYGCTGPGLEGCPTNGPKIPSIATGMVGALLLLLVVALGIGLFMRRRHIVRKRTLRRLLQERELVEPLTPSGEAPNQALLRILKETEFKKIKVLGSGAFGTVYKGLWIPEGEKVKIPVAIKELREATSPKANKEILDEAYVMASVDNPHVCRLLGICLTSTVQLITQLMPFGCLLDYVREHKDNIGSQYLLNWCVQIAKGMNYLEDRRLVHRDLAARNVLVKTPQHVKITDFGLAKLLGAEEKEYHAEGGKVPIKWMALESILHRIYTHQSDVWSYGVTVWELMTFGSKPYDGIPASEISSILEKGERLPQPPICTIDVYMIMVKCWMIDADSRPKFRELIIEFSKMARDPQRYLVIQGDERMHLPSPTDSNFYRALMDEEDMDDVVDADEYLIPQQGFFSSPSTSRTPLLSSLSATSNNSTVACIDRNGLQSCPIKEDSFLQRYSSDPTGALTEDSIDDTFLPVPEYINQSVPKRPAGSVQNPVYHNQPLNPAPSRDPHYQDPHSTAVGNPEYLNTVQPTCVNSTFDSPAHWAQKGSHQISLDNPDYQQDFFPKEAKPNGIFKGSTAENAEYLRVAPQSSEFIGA

Row | SMILES | IC50 ([1]; Homo sapiens, NCI-H1975) [nM] | selective inhibitory activity against the cell growth [IC50 (A431 cells)/IC50 (H1975 cells)] [1] | IC50 ([2]; Homo sapiens, A-431, 72 h) [nM] | Selective inhibitory activities of target on cellular level [IC50 (A431 cells)/IC50 (H1975 cells)] [3] | IC50 ([3]; Homo sapiens, NCI-H1975) [nM] | IC50 [4] [nM] | IC50 ([5]; Homo sapiens, A-431) [nM] | IC50 ([6]; Mus musculus, NIH3T3) [nM] | IC50 [1] [nM] | IC50 [6] [nM] | IC50 ([2]; MTT, 72 h) [nM] | IC50 [3] [nM] | IC50 [5] [nM]
1 | C=CC(=O)Nc1cc(Nc2nccc(-c3cnc4c(cnn4C)c3)n2)c(OC)cc1N(C)CCN(C)C [Compound Z-6, N-(2-((2-(dimethylamino)ethyl)(methyl)amino)-4-methoxy-5-(4-(1-methyl-1H-pyrazolo[3,4-b]pyridin-5-yl)pyrimidin-2-ylamino)phenyl)acrylamide] | 17 | 45.5 | 773 | 5.7 | 34 | 10 | 194 | – | – | – | – | – | –
2 | C=CC(=O)Nc1cc(Nc2nccc(-c3cnc4c(ccn4C)c3)n2)c(OC)cc1N(C)CCN(C)C [Compound Z-16, N-(2-((2-(dimethylamino)ethyl)(methyl)amino)-4-methoxy-5-((4-(1-methyl-1H-pyrrolo[2,3-b]pyridin-5-yl)pyrimidin-2-yl)amino)phenyl)acrylamide] | 9 | 97 | 871 | 15.3 | 10 | 4 | 153 | > 10000 | – | – | – | – | –
3 | C=CC(=O)Nc1cc(Nc2ncc(Cl)c(-c3cnn(C)c3)n2)c(OC)cc1N(C)CCN(C)C [Compound Z-19, N-(5-((5-chloro-4-(1-methyl-1H-pyrazol-4-yl)pyrimidin-2-yl)amino)-2-((2-(dimethylamino)ethyl)(methyl)amino)-4-methoxyphenyl)acrylamide] | 22 | – | 757 | – | 21 | – | 675 | 4510 | – | – | – | – | –
4 | C=CC(=O)Nc1cc(Nc2ncc(C(F)(F)F)c(-c3cnc4c(ccn4C)c3)n2)c(OC)cc1N(C)CCN(C)C [Compound Z-22, N-(2-((2-(dimethylamino)ethyl)(methyl)amino)-4-methoxy-5-((4-(1-methyl-1H-pyrrolo[2,3-b]pyridin-5-yl)-5-(trifluoromethyl)pyrimidin-2-yl)amino)phenyl)acrylamide] | 29 | 65.5 | 1900 | 53.6 | 23 | 57 | 1230 | – | – | – | – | – | –
5 | C=CC(=O)Nc1cc(Nc2nccc(-c3cnc4c(ccn4C)c3)n2)c(OC)cc1N1CC(N(C)C)C1 [Compound Z-27] | – | 50.1 | – | 21.7 | – | 19 | – | – | 49 | 7960 | 2480 | 44 | 955
6 | C=CC(=O)Nc1cc(Nc2nccc(-c3cnc4[nH]ccc4c3)n2)c(OC)cc1N(C)CCN(C)C [Compound Z-30] | – | 44.4 | – | – | – | – | – | – | 25 | 5790 | 1110 | – | –
7 | C=CC(=O)Nc1cc(Nc2ncc(Cl)c(-c3cnc4c(cnn4C)c3)n2)c(OC)cc1N(C)CCN(C)C [Compound Z-39] | – | 57.4 | – | 16.1 | – | 33 | – | – | 16 | 8890 | 918 | 41 | 660
8 | C=CC(=O)Nc1cc(Nc2ncc(OC)c(-c3cnc4c(cnn4C)c3)n2)c(OC)cc1N(C)CCN(C)C [Compound Z-44] | – | 56.7 | – | – | – | 30 | – | – | 32 | 8880 | 1810 | – | –
9 | C=CC(=O)Nc1cc(Nc2ncc(Cl)c(-c3cnn(C)c3C)n2)c(OC)cc1N(C)CCN(C)C [Compound Z-55] | – | – | – | – | – | 21 | – | – | – | 5420 | 660 | 15 | 200
10 | C=CC(=O)Nc1cc(Nc2ncc(Cl)c(-c3c(C)nn(C)c3C)n2)c(OC)cc1N(C)CCN(C)C [Compound Z-91, N-(5-(5-chloro-4-(1,3,5-trimethyl-1H-pyrazol-4-yl)pyrimidin-2-ylamino)-2-((2-(dimethylamino)ethyl)(methyl)amino)-4-methoxyphenyl)acrylamide] | 36 | 100.3 | 3610 | 36.4 | 90 | 195 | 3280 | > 10000 | – | – | – | – | –
11 | C=CC(=O)Nc1cc(Nc2ncc(Cl)c(-c3cn(C)nc3C)n2)c(OC)cc1N(C)CCN(C)C [Compound Z-94, N-(5-(5-chloro-4-(1,3-dimethyl-1H-pyrazol-4-yl)pyrimidin-2-ylamino)-2-((2-(dimethylamino)ethyl)(methyl)amino)-4-methoxyphenyl)acrylamide] | 8 | 80.6 | 645 | 23.3 | 16 | 20 | 372 | > 10000 | – | – | – | – | –
12 | C=CC(=O)Nc1cc(Nc2ncc(Cl)c(-c3ccn(C)c3)n2)c(OC)cc1N1CCC(N(C)C)CC1 [Compound Z-98, N-(5-(5-chloro-4-(1-methyl-1H-pyrrol-3-yl)pyrimidin-2-ylamino)-2-(4-(dimethylamino)piperidin-1-yl)-4-methoxyphenyl)acrylamide] | 108 | 15.2 | 1640 | – | – | 407 | – | 4360 | – | – | – | – | –
13 | C=CC(=O)Nc1cc(Nc2ncc(Cl)c(-c3cn[nH]c3)n2)c(OC)cc1N1CCC(N(C)C)CC1 [Compound Z-102, N-(5-(5-chloro-4-(1H-pyrazol-4-yl)pyrimidin-2-ylamino)-2-(4-(dimethylamino)piperidin-1-yl)-4-methoxyphenyl)acrylamide] | 15 | – | 597 | – | 11 | – | 1020 | – | – | – | – | – | –
14 | C=CC(=O)Nc1cc(Nc2nccc(-c3cnc4c(ccn4C)c3)n2)c(OC)cc1N(C)CCNC [Compound Z-106] | – | 52.7 | – | 16.1 | – | 4 | – | – | 13 | – | 685 | 12 | 193
15 | C=CC(=O)Nc1cc(Nc2nccc(-c3cnc4c(ccn4C)c3)n2)c(OC)cc1N(C)CCN(CC)CC [Compound Z-107] | – | 38.2 | – | 15.5 | – | 16 | – | – | 37 | – | 1410 | 55 | 855
16 | C=CC(=O)Nc1cc(Nc2nccc(-c3cnc4c(ccn4C)c3)n2)c(OC)cc1N(C)CCCN(C)C [Compound Z-108] | – | 37.7 | – | – | – | – | – | – | 77 | 3620 | 2900 | – | –
17 | C=CC(=O)Nc1cc(Nc2nccc(-c3cnc4c(ccn4C)c3)n2)c(OC)cc1N(C)CCN1CCCC1 [Compound Z-112] | – | – | – | 6.3 | – | 22 | – | – | – | > 10000 | – | 77 | 486
18 | C=CC(=O)Nc1cc(Nc2ncc(Cl)c(-c3cnc4c(ccn4C)c3)n2)c(OC)cc1N1CC(N(C)C)C1 [Compound Z-113] | – | – | – | 22.8 | – | 121 | – | – | – | 5320 | – | 99 | 2250
19 | C=CC(=O)Nc1cc(Nc2ncc(F)c(-c3cnc4c(c3)c(Cl)cn4C)n2)c(OC)cc1N(C)CCN(C)C [Compound Z-123] | – | 40.2 | – | – | – | 3 | – | – | 26 | 4740 | 1040 | – | –
20 | C=CC(=O)Nc1cc(Nc2nccc(-c3cnc4c(ccn4C(C)C)c3)n2)c(OC)cc1N(C)CCN(C)C [Compound Z-124] | – | 46.8 | – | – | – | 13 | – | – | 38 | 3240 | 1780 | – | –
21 | C=CC(=O)Nc1cc(Nc2nccc(-c3cccnc3)n2)c(OC)cc1N1CCC(N(C)C)CC1 [compound 2, reference compound] | 277 | 24 | 6660 | 0.83 | 241 | – | 199 | – | – | – | – | – | –
22 | C=CC(=O)Nc1cc(Nc2ncc(OC)c(-c3cnc4ccccc4c3)n2)c(OC)cc1N1CCC(N(C)C)CC1 [compound 3, reference compound] | 437 | 6.8 | 2970 | 2.7 | 1140 | – | 3110 | – | – | – | – | – | –
